Source: paper PMC6017591, “Design, Synthesis and in Combo Antidiabetic Bioevaluation of Multitarget Phenylpropanoic Acids” (Molecules : A Journal of Synthetic Chemistry and Natural …, 2018)

Experiments:
[1] = system: STZ-NA induced diabetes mice model; experiment: In vivo antidiabetic effect in STZ-NA induced diabetes mice model; design: species or system CD1 mice; details: 100 mg/kg single dose, intragastric
Procedure: Glibenclamide was used as a positive control, in order to ensure that the damage over β-cells was partial and mice pancreas still produces insulin, that responds to a secretagogue such as sulfonylurea drug used in this work.
CD1 mice (20–25 g) were housed in groups of six (n = 6) under laboratory conditions. Before experimentation, all animals were fasted for 16 h with water ad libitum. All animal procedures were conducted in accordance with the Mexican Federal Regulations for Animal Experimentation and Care (SAGARPA, NOM-062-ZOO-1999), based on US National Institutes of Health Publication #85-23, revised 1985. Non-insulin-dependent diabetes mice model was induced in overnight fasted mice by a single i.p. injection of 100 mg/kg STZ, 15 min before the i.p. administration of 40 mg/kg of NA. Hyperglycaemia was established by the higher plasma glucose concentration, determined by glucometer after 2 weeks. The animals with glycaemia higher than 200 mg/dL were selected for the assay. The diabetic mice were separated into […] of six animals each (n = 6). Mice of experimental groups were administered with a suspension of the molecules 1–3 (100 mg/kg, prepared in 10% (v/v) tween 80). Control group mice were similarly treated with 10% tween 80. […] The samples of blood were collected from the caudal vein at 0, 1, 3, 5 and 7 h after administration of each compound. Blood glucose levels were estimated using a commercial glucometer. The percentage variation of glycemia for each group was calculated. Values are expressed as mean ± S.E.M. Statistical significance was estimated by ANOVA.

[2] = system: GLUT-4; experiment: Relative mRNA expression of GLUT-4 in 3T3-L1 adipocytes; type: cell-based; details: 24 h treatment
Excerpt: 3T3-L1 fibroblasts were differentiated to the adipocyte phenotype in order to determine the action of compounds on PPARγ and GLUT-4 expression. […] The activation of PPARγ could reduce the glucose levels in diabetic patients due to insulin resistance reduction. […] Several evidences indicate that increased levels of GLUT-4 expression in skeletal muscle are critical for the regulation of glucose homeostasis.
Both assays were achieved as described elsewhere. Briefly: 3T3-L1 fibroblasts (9 × 10^5 cells per well) were cultured in 6-well plates in Dulbecco’s modified Eagle’s medium. After 2 days of confluence, the cells were differentiated to the adipocyte phenotype with 0.5 mM 3-isobutyl-1-methylxanthine, 0.25 μM dexamethasone acetate, and 0.8 μM insulin, for 48 h, followed by insulin alone for other 48 h. To determine the action of compounds on PPARγ and GLUT-4 expression, the cells were treated 24 h. RNA was isolated from cultured cells and two μg of total RNA were reverse-transcripted in a thermocycler. The enzyme was inactivated and finally samples were cooled. […] PCR was conducted and the threshold cycles (Ct) were measured in separate tubes and in duplicate. The ΔCt values were calculated in every sample for each gene of interest. Relative changes in the expression level of one specific gene (ΔΔCt) were calculated.

[3] = target: GPR40 (Homo sapiens, UniProt O14842); experiment: GPR40 agonist calcium flux assay in hGPR40/Gα16/HEK293 cells; details: for Emax at 100 µM: HEK293, read-out: Maximal Response % (100 μM)
Sequence of GPR40 (O14842 whole entry): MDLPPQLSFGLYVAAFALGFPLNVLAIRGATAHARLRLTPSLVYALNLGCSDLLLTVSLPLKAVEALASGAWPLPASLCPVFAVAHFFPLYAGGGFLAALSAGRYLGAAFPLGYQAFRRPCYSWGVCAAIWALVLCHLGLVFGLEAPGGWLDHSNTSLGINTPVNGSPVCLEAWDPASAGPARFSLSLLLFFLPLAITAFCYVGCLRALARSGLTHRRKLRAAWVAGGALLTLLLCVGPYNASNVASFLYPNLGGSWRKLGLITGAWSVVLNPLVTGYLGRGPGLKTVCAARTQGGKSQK
Procedure: Linoleic acid (LA), one of the endogenous ligands for GPR40, was designated as positive control.
This bioassay was previously described [2]. Briefly: About 4 × 10^4 h GPR40/HEK293 per well were seeded in 96-well plate. After culturing for 24 h, cells were loaded with 2 μmol/L Fluo-4 AM in Hanks’ balanced salt solution at 37 °C for 40 min.

[4] = target: human recombinant AKR1B1 (Homo sapiens, UniProt P15121); experiment: Aldose reductase (AKR1B1) inhibition assay
Procedure: Human recombinant AKR1B1 was purified by electrophoretic homogeneity as previously described [24]. The enzyme activity was corroborated at 37 °C following the decrease of absorbance at 340 nm. […] IC50 values was determined by nonlinear regression analysis. For each curve, five different concentrations of compounds were analyzed [25].

| SMILES | Increase in GLUT-4 levels (mRNA expression) [2] | EC50 [3] | Emax at 100 µM [3] | also measured |
| --- | --- | --- | --- | --- |
| N#Cc1ccccc1-c1ccc(COc2ccc(CCC(=O)O)cc2)cc1 [Compound 3, 3-{4-[(2′-Cyanobiphenyl-4-yl)methoxy]phenyl} propanoic acid] | 2 to 4 times |  |  | Glucose lowering effect (variation of glycemia) ([1]; at 3 h): −20%; Glucose lowering effect (variation of glycemia) ([1]; at 5 h): −50%; Glucose lowering effect (variation of glycemia) ([1]; at 7 h): −60% |
| CCCCC/C=C\C/C=C\CCCCCCCC(=O)O [LA, Linoleic acid, reference compound] |  | 8.3 ± 1.7 µM | 100% |  |
| O=C(O)CCc1ccc(OCC(=O)Nc2nc3ccccc3s2)cc1 [Compound 5, 3-{4-[2-(1,3-Benzothiazol-2-ylamino)-2 oxoethoxy]phenyl}propanoic Acid] |  | > 100 µM | 9.9% | GPR40 agonistic activity (in words) ([3]; calcium assay): inactive; IC50 [4]: 23.3 µM |
| O=C(O)CCc1ccc(OCc2ccc3ccccc3n2)cc1 [Compound 4, 3-[4-(Quinolin-2-ylmethoxy)phenyl]propanoic acid] |  | ~100 µM | 84% |  |
| O=C(O)CCc1ccc(OCc2cccc3ccccc23)cc1 [Compound 2, 3-[4-(1-Naphthylmethoxy)phenyl]propanoic acid] | 2 to 4 times |  |  | Decrease of blood glucose levels ([1]; 7 h after administration, STZ-NA diabetic mice): ~80% |
| O=C(O)CCc1ccc(OCc2cccc(-c3ccccc3)c2)cc1 [Compound 1, 3-[4-(Biphenyl-3-ylmethoxy)phenyl]propanoic acid] |  | 0.075 ± 0.02 µM | 98 ± 10% | In vivo antidiabetic activity (in words) ([1]; STZ-NA diabetic mice): lack of in vivo activity |
